Source: PMC7549094 (Journal of Medicinal Chemistry, 2020)

Experiments:
[1] = target: T1, purified L. donovani proteasome (Leishmania donovani, UniProt A0A3Q8IIY4+A0A3S7XA80); experiment: chymotrypsin-like activity of purified L. donovani proteasome; format: biochemical; conditions: half-maximum inhibition of chymotrypsin-like activity of purified L. donovani proteasome; mean, n = 4 technical replicates
T1 sequence (A0A3Q8IIY4 100-302): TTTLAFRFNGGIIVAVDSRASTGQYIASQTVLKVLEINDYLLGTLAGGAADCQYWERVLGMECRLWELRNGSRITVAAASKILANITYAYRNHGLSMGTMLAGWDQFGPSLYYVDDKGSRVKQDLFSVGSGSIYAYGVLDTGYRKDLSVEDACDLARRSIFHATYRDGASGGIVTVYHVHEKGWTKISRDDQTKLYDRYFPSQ
T1 sequence (A0A3S7XA80 1-206): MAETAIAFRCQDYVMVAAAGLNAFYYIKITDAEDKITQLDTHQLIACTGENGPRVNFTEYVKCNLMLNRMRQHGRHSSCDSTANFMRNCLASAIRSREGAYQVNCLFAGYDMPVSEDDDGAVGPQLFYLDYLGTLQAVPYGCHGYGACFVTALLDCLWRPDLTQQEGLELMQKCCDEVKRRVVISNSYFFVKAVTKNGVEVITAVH

[2] = microsomal extraction ratio, 1 h incubation in microsomes
[3] = metabolite profile in rat hepatocytes; format: in vitro ADME; conditions: 10 μM of 1 for 4 h, UV 250 nm, normalized to largest peak
hr 5-HTT = hr 5-HTT (Homo sapiens, UniProt P31645); experiment: receptor profile (Table S4); format: binding
Sequence of hr 5-HTT (P31645 whole entry): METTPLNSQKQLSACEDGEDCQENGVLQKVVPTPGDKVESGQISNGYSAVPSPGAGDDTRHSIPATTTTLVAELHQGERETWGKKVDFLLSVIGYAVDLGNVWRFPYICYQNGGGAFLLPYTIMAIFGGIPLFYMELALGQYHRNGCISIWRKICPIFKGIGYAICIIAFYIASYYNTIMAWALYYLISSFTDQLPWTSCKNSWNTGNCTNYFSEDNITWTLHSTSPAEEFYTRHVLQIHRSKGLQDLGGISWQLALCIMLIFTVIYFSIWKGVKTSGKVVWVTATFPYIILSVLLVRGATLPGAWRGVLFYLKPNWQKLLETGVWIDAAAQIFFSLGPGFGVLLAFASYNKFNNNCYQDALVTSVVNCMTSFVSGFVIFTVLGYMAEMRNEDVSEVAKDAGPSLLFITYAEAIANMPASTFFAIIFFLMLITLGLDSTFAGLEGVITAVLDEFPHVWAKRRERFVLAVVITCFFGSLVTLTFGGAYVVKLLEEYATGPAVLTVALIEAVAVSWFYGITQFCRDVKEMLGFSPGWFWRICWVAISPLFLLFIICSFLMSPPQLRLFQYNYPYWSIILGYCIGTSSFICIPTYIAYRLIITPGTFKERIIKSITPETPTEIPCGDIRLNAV

hr 5-HT3 = target: T2, hr 5-HT3 (Homo sapiens, UniProt P46098); experiment: receptor profile (Table S4); format: binding
T2 sequence (P46098 24-478): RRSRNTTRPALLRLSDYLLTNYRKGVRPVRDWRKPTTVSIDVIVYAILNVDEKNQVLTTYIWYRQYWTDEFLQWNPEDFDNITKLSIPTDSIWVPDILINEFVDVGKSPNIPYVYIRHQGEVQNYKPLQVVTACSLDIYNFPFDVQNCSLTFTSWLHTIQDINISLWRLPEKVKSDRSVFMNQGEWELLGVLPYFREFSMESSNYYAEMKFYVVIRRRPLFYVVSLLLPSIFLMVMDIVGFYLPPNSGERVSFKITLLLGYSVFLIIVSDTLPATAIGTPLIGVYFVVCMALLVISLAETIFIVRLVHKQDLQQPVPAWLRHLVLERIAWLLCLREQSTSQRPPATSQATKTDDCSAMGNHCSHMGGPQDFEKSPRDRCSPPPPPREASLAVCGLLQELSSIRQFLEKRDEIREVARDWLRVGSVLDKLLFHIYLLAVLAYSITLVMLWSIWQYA

hr 5-HT2A antag = hr 5-HT2A antag (Homo sapiens, UniProt P28223); experiment: receptor profile (Table S4); format: biochemical
Sequence of hr 5-HT2A antag (P28223 whole entry): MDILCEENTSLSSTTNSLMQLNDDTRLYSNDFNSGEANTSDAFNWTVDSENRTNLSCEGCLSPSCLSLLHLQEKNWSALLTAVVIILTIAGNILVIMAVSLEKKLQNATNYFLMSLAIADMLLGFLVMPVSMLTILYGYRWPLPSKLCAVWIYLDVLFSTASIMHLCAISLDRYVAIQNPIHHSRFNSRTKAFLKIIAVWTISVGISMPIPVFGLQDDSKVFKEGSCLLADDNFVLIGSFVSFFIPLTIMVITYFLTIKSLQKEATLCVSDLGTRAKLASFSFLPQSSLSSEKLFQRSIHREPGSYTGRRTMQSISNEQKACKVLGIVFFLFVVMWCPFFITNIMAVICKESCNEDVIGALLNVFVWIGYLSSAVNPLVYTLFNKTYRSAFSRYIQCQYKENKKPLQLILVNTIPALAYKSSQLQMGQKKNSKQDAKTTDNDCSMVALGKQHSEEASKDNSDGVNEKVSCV

hr TP ag = target: T3, hr TP ag (Homo sapiens, UniProt P21731); experiment: receptor profile (Table S4); format: biochemical
T3 sequence (P21731 1-343): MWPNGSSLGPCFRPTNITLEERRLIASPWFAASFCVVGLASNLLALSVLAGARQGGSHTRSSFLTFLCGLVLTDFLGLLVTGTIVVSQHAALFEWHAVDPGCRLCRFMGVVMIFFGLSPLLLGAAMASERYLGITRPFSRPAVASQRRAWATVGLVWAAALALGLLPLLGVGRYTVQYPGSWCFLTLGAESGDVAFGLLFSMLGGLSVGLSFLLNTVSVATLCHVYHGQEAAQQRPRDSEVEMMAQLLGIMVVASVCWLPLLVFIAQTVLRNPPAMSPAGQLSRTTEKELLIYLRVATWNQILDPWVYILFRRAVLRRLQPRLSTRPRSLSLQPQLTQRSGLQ

hr MAOA = target: T4, hr MAOA (Homo sapiens, UniProt P21397); experiment: receptor profile (Table S4); format: biochemical
T4 sequence (P21397 1-527): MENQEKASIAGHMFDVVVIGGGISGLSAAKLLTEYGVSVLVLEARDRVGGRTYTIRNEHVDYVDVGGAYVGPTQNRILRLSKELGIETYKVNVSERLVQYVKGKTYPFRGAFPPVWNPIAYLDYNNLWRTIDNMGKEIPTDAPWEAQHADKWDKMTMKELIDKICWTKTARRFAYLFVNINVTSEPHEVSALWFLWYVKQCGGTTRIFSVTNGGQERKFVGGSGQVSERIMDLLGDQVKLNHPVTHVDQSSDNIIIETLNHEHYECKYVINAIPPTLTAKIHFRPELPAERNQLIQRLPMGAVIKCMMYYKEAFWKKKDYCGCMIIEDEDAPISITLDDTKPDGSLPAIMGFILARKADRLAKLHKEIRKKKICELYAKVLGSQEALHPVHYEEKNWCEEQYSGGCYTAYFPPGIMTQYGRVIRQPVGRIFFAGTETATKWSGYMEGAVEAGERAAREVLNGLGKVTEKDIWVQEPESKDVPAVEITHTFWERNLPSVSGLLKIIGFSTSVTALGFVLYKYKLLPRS

in vivo = conditions: male, dog, plasma
PXR = PXR (Homo sapiens, UniProt O75469); experiment: receptor profile (Table S4); conditions: human
Sequence of PXR (O75469 whole entry): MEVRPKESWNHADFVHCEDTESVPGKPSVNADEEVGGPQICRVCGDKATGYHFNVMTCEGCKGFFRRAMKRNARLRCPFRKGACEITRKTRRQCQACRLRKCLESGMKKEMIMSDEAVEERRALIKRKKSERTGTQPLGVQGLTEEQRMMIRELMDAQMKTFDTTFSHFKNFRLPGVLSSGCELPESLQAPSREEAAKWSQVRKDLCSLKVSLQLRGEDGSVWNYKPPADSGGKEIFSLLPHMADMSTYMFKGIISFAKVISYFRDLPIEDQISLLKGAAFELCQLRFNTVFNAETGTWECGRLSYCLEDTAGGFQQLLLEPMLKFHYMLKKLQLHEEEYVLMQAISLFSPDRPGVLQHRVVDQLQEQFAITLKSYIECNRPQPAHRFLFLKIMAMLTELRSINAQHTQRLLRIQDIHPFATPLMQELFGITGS

hr PXR ag = hr PXR ag (Homo sapiens, UniProt O75469); experiment: receptor profile (Table S4); conditions: hr PXR ag
Sequence of hr PXR ag (O75469 whole entry): as above

hERG = hERG (Homo sapiens, UniProt Q12809); experiment: hERG manual patch clamp assay; conditions: read-out: hERG channel IC50
Sequence of hERG (Q12809 whole entry): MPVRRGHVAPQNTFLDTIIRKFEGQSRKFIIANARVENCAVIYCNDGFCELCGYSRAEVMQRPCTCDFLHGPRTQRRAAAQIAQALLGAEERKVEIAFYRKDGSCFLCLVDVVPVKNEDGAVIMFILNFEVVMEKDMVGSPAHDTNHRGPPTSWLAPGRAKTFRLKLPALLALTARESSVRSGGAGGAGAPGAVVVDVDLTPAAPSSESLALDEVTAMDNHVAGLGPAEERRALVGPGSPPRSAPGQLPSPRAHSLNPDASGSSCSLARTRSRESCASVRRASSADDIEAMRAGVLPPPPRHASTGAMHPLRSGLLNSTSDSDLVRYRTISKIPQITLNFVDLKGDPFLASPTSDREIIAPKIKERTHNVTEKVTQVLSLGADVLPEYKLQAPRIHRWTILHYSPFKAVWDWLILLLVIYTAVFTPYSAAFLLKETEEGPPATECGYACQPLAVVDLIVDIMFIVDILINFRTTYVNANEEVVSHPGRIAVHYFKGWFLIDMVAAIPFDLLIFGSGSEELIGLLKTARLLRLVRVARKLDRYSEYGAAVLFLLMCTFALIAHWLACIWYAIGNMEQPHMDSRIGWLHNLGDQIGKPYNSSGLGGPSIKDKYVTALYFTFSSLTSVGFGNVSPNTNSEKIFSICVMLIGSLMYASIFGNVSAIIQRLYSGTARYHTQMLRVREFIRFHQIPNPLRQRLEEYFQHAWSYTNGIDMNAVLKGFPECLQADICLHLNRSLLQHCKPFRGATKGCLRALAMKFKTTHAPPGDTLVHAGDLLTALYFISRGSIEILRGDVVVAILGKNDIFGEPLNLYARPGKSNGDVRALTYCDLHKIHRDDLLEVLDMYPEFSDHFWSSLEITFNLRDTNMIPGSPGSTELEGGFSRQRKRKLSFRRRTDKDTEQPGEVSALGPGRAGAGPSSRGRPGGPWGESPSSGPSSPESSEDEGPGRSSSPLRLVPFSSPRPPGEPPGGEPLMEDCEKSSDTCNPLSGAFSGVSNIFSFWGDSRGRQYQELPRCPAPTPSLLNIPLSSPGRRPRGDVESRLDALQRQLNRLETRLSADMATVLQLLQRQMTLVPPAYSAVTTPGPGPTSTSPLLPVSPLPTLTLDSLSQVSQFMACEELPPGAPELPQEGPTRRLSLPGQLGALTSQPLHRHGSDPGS

## Cc1nc(C)c(C(=O)Nc2ccc(F)c(-c3nc4ncc(-c5ncccc5C)cn4n3)c2)o1 [compound 1, N-(4-Fluoro-3-(6-(3-methylpyridin-2-yl)-[1,2,4]triazolo[1,5-a]pyrimidin-2-yl)phenyl)-2,4-dimethyloxazole-5-carboxamide]
[1]
  IC50: 40 nM
[2]
  ER rat: < 0.18
[3]
  abundance rat: +++ (+++ > 75%)
Hr 5-HTT; hr 5-HTT
  EC50/IC50: > 30 µM
Hr 5-HTT; read-out: % inh/act @ 10 µM
  inhibition at 10 µM: 17%
Hr 5-HTT; read-out: % inh/act @ 30 µM
  inhibition at 30 µM: 12%
Hr 5-HT3; hr 5-HT3
  EC50/IC50: > 30 µM
Hr 5-HT3; read-out: % inh/act @ 10 µM
  inhibition at 10 µM: 22%
Hr 5-HT3; read-out: % inh/act @ 30 µM
  inhibition at 30 µM: 19%
Hr 5-HT2A antag; hr 5-HT2A antag
  EC50/IC50: > 10 µM
Hr 5-HT2A antag; read-out: % inh/act @ 10 µM
  inhibition at 10 µM: 34%
Hr TP ag; hr TP ag
  EC50/IC50: > 30 µM
Hr TP ag; read-out: % inh/act @ 10 µM
  inhibition at 10 µM: -5%
Hr TP ag; read-out: % inh/act @ 30 µM
  inhibition at 30 µM: -2%
Hr MAOA; hr MAOA
  EC50/IC50: > 30 µM
Hr MAOA; read-out: % inh/act @ 10 µM
  inhibition at 10 µM: 4%
Hr MAOA; read-out: % inh/act @ 30 µM
  inhibition at 30 µM: 12%
Hr GABAA ag
  % inh/act @ 10 µM: -11%
  % inh/act @ 30 µM: -2%
H PDE3
  % inh/act @ 10 µM: 6%
  % inh/act @ 30 µM: 4%
In vivo; Beagle, po, 1 mg/kg
  bioavailability: 44%
In vivo; beagle, iv, 0.3 mg/kg
  MRT: 3.3 h
  Vd: 2.1 L/kg
  clearance: 11.6 mL/min/kg
  half-life: 228 min
PXR
  inhibition at 10 µM: 0%
Hr PXR ag
  EC50/IC50: > 30 µM
hERG
  IC50: > 30 µM
